Among the data in ChEMBL document CHEMBL5465560, “Selectivity Literature for EUbOPEN Chemogenomic Library” (2024) are % of control and % of inhibition values, retold here.

For test [1], the target named is Tyrosine-protein kinase HCK (Homo sapiens) (UniProt P08631). Briefly: Selectivity interaction (Kinase panel (Z-LYTE Assay)) EUB0001632a HCK. The following applies: at 10 µM.
Test [2] has as its target Calcium/calmodulin-dependent protein kinase type 1 (Homo sapiens) (UniProt Q14012). Briefly: Selectivity interaction (ActivX KiNativ screen (ex vivo kinase selectivity in human PBMCs)) EUB0001619a CAMK1. Type of test: cell-based. The following applies: PBMC, at 1 µM.
The target of test [3] is Myosin light chain kinase, smooth muscle (Homo sapiens, UniProt Q15746). Briefly: Selectivity interaction (ActivX KiNativ screen (ex vivo kinase selectivity in human PBMCs)) EUB0001619a MYLK. As to conditions: PBMC, at 1 µM. Type of test: cell-based.
Sequence of Myosin light chain kinase, smooth muscle (Q15746 whole entry): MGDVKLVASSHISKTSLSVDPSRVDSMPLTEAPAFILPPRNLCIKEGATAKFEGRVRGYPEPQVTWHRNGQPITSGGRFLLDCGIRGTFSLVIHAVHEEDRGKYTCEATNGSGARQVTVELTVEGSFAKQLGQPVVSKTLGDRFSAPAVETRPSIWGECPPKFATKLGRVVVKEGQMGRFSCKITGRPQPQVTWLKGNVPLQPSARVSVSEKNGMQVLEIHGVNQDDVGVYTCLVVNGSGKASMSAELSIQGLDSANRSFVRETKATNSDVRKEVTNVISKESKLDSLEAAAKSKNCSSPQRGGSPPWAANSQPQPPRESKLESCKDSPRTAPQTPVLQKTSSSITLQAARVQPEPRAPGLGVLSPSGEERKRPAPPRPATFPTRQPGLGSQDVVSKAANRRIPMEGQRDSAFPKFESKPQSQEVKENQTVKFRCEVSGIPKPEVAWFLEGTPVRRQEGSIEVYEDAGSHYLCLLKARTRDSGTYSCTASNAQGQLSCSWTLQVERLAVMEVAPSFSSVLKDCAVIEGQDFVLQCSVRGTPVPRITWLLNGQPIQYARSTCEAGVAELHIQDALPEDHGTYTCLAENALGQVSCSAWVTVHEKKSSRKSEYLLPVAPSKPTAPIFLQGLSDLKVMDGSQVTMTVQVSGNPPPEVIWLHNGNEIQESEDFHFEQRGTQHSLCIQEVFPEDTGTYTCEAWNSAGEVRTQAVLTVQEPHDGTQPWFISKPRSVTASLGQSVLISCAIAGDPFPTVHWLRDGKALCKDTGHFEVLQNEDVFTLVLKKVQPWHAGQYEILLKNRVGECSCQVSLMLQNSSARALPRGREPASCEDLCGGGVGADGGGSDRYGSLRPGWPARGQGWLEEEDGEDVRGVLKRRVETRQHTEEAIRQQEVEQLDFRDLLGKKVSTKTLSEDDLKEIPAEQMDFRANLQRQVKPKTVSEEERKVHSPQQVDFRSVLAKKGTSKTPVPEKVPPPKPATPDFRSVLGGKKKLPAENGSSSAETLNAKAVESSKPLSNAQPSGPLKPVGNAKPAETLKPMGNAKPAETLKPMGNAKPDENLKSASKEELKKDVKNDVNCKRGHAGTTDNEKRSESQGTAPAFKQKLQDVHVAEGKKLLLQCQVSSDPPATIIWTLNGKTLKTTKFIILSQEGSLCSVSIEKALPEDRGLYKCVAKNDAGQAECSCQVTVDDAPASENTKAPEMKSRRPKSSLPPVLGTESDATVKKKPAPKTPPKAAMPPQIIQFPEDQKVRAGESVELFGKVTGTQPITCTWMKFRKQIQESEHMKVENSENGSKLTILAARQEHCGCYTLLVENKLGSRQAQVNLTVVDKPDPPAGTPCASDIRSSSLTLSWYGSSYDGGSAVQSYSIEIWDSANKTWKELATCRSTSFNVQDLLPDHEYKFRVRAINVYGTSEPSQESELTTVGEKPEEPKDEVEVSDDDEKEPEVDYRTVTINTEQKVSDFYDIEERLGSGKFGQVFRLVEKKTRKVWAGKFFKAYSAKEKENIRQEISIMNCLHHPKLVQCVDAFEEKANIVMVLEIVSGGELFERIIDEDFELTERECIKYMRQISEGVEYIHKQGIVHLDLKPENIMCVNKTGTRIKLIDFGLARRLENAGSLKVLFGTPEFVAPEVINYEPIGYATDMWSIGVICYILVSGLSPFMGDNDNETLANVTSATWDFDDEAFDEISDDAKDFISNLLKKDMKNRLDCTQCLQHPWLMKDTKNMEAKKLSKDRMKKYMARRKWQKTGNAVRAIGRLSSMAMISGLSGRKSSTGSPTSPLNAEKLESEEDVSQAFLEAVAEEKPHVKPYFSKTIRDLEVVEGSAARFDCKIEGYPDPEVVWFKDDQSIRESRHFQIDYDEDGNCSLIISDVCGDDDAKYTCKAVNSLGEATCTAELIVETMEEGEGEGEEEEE
Test [4] has as its target Protein-tyrosine kinase 2-beta (Homo sapiens) (UniProt Q14289). Briefly: Selectivity interaction (KinomeScan (DiscoverX)) EUB0000695a PTK2B. As to conditions: at 100 nM.
The target in test [5] is T1, Dual specificity tyrosine-phosphorylation-regulated kinase 2 (Homo sapiens) (UniProt Q92630).
T1 sequence (whole entry): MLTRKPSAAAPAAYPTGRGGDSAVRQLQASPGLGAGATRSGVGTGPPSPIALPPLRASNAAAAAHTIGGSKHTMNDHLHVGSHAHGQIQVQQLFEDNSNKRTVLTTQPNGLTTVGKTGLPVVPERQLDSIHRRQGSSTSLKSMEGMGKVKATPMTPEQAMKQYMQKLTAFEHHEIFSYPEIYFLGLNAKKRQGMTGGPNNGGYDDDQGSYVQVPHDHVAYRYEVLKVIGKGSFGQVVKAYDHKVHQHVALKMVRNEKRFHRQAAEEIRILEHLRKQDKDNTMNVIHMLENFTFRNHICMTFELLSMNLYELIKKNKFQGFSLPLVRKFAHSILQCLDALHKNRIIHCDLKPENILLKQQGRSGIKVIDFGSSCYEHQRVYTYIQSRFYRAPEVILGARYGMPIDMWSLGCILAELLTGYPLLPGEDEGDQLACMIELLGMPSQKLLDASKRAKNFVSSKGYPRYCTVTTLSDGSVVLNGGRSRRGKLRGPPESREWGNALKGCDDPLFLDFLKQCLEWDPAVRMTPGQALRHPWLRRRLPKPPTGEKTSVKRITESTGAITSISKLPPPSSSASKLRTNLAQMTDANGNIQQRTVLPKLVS
Briefly: Selectivity interaction (KinomeScan (DiscoverX)) EUB0000666a DYRK2. As to conditions: at 10 µM.

Test [6] has as its target T2, Mitogen-activated protein kinase kinase kinase 15 (Homo sapiens) (UniProt Q6ZN16).
T2 sequence (whole entry): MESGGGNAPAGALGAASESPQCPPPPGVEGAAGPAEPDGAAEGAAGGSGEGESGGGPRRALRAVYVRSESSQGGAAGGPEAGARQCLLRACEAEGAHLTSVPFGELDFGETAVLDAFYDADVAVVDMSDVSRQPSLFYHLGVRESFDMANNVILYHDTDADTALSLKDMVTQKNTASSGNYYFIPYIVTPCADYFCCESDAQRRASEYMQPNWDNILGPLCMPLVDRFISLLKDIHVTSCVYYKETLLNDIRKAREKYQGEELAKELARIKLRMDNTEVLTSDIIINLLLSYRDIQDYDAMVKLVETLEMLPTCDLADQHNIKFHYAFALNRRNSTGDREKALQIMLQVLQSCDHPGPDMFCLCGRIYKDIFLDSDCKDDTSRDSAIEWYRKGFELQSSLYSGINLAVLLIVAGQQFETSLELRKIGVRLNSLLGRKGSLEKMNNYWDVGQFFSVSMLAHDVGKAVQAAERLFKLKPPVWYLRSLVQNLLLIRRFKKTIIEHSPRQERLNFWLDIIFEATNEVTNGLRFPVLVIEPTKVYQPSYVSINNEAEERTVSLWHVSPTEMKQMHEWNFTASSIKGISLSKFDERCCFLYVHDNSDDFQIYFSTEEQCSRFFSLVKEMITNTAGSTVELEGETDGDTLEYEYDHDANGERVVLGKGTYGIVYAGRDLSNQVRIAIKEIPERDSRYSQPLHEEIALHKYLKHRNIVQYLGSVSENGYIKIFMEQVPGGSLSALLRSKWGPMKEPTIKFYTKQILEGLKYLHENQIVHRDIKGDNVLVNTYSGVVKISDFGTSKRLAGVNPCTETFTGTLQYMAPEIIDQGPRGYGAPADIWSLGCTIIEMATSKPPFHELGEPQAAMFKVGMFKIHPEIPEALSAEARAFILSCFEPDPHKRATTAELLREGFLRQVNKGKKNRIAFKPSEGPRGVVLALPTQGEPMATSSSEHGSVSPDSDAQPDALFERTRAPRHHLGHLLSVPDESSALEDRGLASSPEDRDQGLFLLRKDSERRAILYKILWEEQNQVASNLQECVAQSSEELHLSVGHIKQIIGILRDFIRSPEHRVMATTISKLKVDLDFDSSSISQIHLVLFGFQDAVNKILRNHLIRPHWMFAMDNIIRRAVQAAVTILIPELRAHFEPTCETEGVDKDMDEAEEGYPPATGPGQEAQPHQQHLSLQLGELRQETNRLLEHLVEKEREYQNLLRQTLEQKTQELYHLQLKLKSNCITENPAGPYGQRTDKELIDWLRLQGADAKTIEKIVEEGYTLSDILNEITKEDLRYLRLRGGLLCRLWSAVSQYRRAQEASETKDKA
As to conditions: at 10 µM.

Test [7] addresses Tyrosine-protein kinase receptor Tie-1 (Homo sapiens) (UniProt P35590). Briefly: Selectivity interaction (KinomeScan (DiscoverX)) EUB0000045b TIE1.

Sequence of Tyrosine-protein kinase receptor Tie-1 (Homo sapiens) (P35590 whole entry): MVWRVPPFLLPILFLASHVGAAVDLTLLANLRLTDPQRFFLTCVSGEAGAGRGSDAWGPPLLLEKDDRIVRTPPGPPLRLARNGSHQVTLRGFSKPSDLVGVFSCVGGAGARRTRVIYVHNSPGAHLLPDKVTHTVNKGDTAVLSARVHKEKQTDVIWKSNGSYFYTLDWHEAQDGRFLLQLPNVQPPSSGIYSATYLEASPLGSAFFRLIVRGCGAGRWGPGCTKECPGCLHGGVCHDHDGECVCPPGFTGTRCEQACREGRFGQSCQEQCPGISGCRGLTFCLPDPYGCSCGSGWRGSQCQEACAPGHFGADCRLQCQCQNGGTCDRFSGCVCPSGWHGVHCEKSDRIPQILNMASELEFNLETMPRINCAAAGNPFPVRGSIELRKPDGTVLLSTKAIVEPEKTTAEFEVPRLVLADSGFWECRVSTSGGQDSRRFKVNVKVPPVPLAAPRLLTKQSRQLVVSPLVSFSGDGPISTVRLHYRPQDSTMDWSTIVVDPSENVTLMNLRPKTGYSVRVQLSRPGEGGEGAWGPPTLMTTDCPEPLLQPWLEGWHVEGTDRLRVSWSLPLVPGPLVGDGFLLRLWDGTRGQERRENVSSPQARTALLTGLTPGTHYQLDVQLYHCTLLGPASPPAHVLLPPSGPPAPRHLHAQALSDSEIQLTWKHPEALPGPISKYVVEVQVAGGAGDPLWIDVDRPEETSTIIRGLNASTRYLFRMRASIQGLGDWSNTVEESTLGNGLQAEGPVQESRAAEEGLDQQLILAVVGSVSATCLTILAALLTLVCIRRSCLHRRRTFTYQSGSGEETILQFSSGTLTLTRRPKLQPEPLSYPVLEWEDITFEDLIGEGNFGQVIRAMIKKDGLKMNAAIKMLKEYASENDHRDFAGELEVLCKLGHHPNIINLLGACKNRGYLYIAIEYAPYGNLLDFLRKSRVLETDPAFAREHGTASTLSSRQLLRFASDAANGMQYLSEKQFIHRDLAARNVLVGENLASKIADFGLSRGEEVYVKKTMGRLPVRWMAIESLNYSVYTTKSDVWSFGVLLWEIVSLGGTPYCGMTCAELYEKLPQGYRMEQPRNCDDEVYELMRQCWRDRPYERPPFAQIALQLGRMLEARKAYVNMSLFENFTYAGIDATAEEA
Sequence of Calcium/calmodulin-dependent protein kinase type 1 (Homo sapiens) (Q14012 whole entry, looked up): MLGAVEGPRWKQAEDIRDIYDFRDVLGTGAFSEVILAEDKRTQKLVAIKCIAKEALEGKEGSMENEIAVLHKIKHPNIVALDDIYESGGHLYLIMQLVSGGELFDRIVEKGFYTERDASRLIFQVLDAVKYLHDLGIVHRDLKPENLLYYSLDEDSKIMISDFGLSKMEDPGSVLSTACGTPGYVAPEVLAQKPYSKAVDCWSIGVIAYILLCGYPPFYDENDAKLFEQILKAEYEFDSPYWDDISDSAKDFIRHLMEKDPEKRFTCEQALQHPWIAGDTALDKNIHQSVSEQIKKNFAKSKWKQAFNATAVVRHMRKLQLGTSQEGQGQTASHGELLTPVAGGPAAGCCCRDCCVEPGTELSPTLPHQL
Sequence of Protein-tyrosine kinase 2-beta (Homo sapiens) (Q14289 whole entry, looked up): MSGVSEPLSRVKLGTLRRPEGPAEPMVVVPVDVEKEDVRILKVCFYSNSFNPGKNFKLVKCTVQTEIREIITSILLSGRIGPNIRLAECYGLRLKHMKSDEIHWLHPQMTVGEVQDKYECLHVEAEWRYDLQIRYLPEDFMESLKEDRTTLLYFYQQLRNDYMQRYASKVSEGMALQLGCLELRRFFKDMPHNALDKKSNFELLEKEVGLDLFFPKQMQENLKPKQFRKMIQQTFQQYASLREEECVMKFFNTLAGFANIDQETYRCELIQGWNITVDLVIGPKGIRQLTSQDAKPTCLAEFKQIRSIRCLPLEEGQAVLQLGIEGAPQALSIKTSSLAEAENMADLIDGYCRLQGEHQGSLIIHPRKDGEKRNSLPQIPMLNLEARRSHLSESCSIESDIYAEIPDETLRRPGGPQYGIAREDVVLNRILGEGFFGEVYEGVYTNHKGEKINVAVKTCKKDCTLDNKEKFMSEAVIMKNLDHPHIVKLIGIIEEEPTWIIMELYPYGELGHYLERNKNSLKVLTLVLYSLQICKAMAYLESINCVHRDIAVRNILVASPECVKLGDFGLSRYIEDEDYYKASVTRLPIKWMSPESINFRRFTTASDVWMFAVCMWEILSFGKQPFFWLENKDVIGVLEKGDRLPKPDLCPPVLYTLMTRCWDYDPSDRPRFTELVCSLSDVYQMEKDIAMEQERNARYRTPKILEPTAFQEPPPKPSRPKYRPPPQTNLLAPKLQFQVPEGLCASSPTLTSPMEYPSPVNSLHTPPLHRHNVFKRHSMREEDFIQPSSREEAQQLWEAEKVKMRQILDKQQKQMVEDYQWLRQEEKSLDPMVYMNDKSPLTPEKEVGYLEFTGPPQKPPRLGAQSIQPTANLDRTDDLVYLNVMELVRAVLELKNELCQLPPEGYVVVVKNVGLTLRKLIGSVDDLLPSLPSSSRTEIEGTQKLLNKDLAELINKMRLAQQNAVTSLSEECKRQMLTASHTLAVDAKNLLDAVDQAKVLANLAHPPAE
Sequence of Tyrosine-protein kinase HCK (Homo sapiens) (P08631 2-526 limits assumed): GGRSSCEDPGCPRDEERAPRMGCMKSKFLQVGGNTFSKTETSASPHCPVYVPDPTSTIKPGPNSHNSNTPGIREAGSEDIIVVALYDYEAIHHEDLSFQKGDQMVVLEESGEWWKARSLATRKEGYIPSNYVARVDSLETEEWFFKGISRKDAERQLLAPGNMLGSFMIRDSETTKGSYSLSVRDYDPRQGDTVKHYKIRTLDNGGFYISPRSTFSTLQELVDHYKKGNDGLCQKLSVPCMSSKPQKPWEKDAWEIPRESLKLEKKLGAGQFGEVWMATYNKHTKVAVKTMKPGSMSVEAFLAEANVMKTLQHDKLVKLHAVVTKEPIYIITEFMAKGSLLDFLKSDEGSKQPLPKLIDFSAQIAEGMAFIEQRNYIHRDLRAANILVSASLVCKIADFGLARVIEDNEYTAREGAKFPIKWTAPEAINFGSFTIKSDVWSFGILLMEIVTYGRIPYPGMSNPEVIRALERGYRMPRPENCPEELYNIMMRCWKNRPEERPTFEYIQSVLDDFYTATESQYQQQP

The compound `Cn1cc(-n2cnc3c(NCc4nc5cc(Cl)c(Cl)cc5[nH]4)nc(N4CCOCC4)nc32)cn1` returned a % of control in test [1] of 5.35%.

With `N#Cc1cccc(-c2c[nH]c3ncnc(N4CCOCC4)c23)c1`, the % of inhibition was 2% in test [2] and 16% in test [3].

In turn, `Cc1cc(F)c(C(=O)Nc2cccc(-c3nncn3C(C)C)n2)cc1-n1cnc(C2CC2)c1` displayed a % of control in test [4] of 100%.

The compound `O=C(NOC[C@H](O)CO)c1ccc(F)c(F)c1Nc1ccc(I)cc1F` yielded a % of control in test [5] of 95%.

Consider `Cc1cc([C@@H](C)Nc2ccccc2C(=O)O)c2nc(N3CCOCC3)cc(=O)n2c1` [AZD-6482], for which the % of control in test [6] was found to be 87%.

As for `C=CC(=O)Nc1cc(-n2c(=O)ccc3cnc4ccc(-c5ccc(NS(C)(=O)=O)cc5)cc4c32)ccc1C`, the % of control in test [7] (at 1 µM) was found to be 100%; in test [7] (at 10 µM), 89%.
